Legend:
[1] = target: T1, Substance-K receptor (Cavia porcellus) (UniProt Q64077); assay: Antagonist activity at NK2 receptor in Dunkin-Hartley guinea pig colon smooth muscle assessed as inhibition of [beta-Ala8]NKA(4-10)-induced tissue contraction in presence of NK1 receptor antagonist SR-140333; type: functional, tissue-based
T1 sequence (whole entry): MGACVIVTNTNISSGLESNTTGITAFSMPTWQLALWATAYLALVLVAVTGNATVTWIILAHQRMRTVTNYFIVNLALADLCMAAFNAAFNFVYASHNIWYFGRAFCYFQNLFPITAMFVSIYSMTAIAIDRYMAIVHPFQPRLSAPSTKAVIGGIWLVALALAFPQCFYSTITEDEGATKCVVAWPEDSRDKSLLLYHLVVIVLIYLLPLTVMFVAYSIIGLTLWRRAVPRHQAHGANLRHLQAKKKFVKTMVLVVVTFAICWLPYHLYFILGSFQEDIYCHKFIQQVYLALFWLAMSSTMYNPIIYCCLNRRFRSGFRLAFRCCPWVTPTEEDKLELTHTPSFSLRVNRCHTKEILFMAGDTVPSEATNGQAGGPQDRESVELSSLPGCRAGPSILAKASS

[2] = target: T2, Substance-K receptor (Homo sapiens, UniProt P21452); assay: Displacement of [3H]neurokinin A from human NK2 receptor
T2 sequence (P21452 whole entry): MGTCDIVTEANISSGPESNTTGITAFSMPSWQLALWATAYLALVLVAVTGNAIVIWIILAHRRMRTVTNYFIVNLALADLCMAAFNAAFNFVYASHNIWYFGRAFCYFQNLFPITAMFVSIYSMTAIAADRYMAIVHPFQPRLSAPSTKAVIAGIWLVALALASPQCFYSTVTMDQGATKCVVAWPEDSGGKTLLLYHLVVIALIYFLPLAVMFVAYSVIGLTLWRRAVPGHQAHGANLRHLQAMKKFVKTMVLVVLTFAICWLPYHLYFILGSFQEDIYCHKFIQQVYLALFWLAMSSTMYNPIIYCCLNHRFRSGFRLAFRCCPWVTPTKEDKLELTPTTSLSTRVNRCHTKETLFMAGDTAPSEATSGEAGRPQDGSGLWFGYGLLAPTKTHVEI

[3] = test system: Cavia porcellus; assay: Inhibition of [beta-Ala8]NKA(4-10)-induced colonic contractions in Dunkin-Hartley guinea pig at 3 umol/kg, iv after 4 hrs relative to control; type: functional
[4] = Apparent permeability from apical to basolateral side of human Caco-2 cells at 100 uM

SMILES	pKb [1]	Ki [2] [nM]	Imax [3] [%]	Papp A→B at 100 µM [4] [×10⁻⁶ cm/s]
Cc1ccc2cc(C(=O)NC3(C(=O)N[C@@H](COCCC4CCN(CC5CCOCC5)CC4)Cc4ccccc4)CCCC3)sc2c1	6.9			
Cc1ccc2cc(C(=O)NC3(C(=O)N[C@@H](/C=C/CN4CCN(CC5CCOCC5)CC4)Cc4ccccc4)CCCC3)sc2c1	8.2	0.501	72	
Cl.N[C@@H](CCC(=O)N1CCN(CC2CCOCC2)CC1)Cc1ccccc1	7.9	0.0794	99	
Cc1ccc2cc(C(=O)NC3(C(=O)N[C@@H](CCCN4CCN(C5CCOCC5)CC4)Cc4ccccc4)CCCC3)sc2c1	8.1	0.251	100	
Cc1ccc2cc(C(=O)NC3(C(=O)N[C@@H](CCCN4CCN(Cc5c[nH]cn5)CC4)Cc4ccccc4)CCCC3)sc2c1	8		83	
Cc1ccc2cc(C(=O)NC3(C(=O)N[C@@H](CCCN4CCN(Cc5ccccn5)CC4)Cc4ccccc4)CCCC3)sc2c1	7.9	0.158	90	
Cc1ccc2cc(C(=O)NC3(C(=O)N[C@@H](CCCN4CCN(Cc5ccsc5)CC4)Cc4ccccc4)CCCC3)sc2c1	8.2	0.158	88	
Cc1ccc2cc(C(=O)NC3(C(=O)N[C@@H](CCCN4CCN(Cc5ccc(F)cc5)CC4)Cc4ccccc4)CCCC3)sc2c1	8.2	0.126	66	
Cc1ccc2cc(C(=O)NC3(C(=O)N[C@@H](CCCN4CCN(Cc5cnc[nH]5)CC4)Cc4ccccc4)CCCC3)sc2c1		1		
CC/N=C(\N1CCOCC1)N1CCN(CCC[C@@H](Cc2ccccc2)NC(=O)C2(NC(=O)c3cc4ccc(C)cc4s3)CCCC2)CC1	8	0.794		
Cc1ccc2cc(C(=O)NC3(C(=O)N[C@@H](CCCN4CCN(C(=O)C5CCOCC5)CC4)Cc4ccccc4)CCCC3)sc2c1	8.1		97	
Cc1ccc2cc(C(=O)NC3(C(=O)N[C@@H](CCCN4CCN(Cc5ccoc5)CC4)Cc4ccccc4)CCCC3)sc2c1	8.2	0.158	67	
Cc1ccc2cc(C(=O)NC3(C(=O)N[C@@H](CCCN4CCC(CN5CCOCC5)CC4)Cc4ccccc4)CCCC3)sc2c1	7.8	1	62	
Cc1ccc2cc(C(=O)NC3(C(=O)N[C@@H](CCCN4CCN(S(N)(=O)=O)CC4)Cc4ccccc4)CCCC3)sc2c1	7.8	0.631	62	
Cc1ccc2cc(C(=O)NC3(C(=O)N[C@@H](CCCN4CCC(CCO)CC4)Cc4ccccc4)CCCC3)sc2c1	8.1	2	47	
Cc1ccc2cc(C(=O)NC3(C(=O)N[C@H](Cc4ccccc4)CN4CCN(CC5CCOCC5)CC4)CCCC3)sc2c1	7.6	2		
Cc1ccc2cc(C(=O)NC3(C(=O)N[C@@H](CCCN4CCN(C(=O)N5CCOCC5)CC4)Cc4ccccc4)CCCC3)sc2c1	8.3	0.398	85	
Cc1ccc2cc(C(=O)NC3(C(=O)N[C@@H](CCCN4CCN(S(=O)(=O)N5CCOCC5)CC4)Cc4ccccc4)CCCC3)sc2c1	8.4	0.501	97	
Cc1ccc(-c2ccc(C(=O)NC3(C(=O)N[C@@H](CCCN4CCN(CC5CCOCC5)CC4)Cc4ccccc4)CCCC3)cc2)cc1	7.8	0.631	60	7.1
Cc1ccc2cc(C(=O)NC3(C(=O)N[C@@H](CCC(=O)N4CCC(N(C)C5CCOCC5)CC4)Cc4ccccc4)CCCC3)sc2c1	7.8	0.316	90	
Cc1ccc2cc(C(=O)NC3(C(=O)N[C@@H](CCCN4CCN(C=O)CC4)Cc4ccccc4)CCCC3)sc2c1	7.8	2		
Cc1ccc2cc(C(=O)NC3(C(=O)N[C@@H](CCCN4CCN(Cc5cccnc5)CC4)Cc4ccccc4)CCCC3)sc2c1	8.2	0.316	84	
O=C(NC1(C(=O)N[C@@H](CCCN2CCN(CC3CCOCC3)CC2)Cc2ccccc2)CCCC1)c1cc2ccccc2s1	8.2	0.251	82	
O=C(NC1(C(=O)N[C@@H](CCCN2CCN(CC3CCOCC3)CC2)Cc2ccccc2)CCCC1)c1cc2ccccc2o1	8.2	0.631	65	20.2

SMILES	pKb [1]	Ki [2] [nM]	Imax [3] [%]	Papp A→B at 100 µM [4] [×10⁻⁶ cm/s]
Cc1ccc2oc(C(=O)NC3(C(=O)N[C@@H](CCCN4CCN(CC5CCOCC5)CC4)Cc4ccccc4)CCCC3)cc2c1	8.7	0.398	100	
Cc1ccc2cc(C(=O)NC3(C(=O)N[C@@H](CCCN4CCN(C(=O)c5cccn5C)CC4)Cc4ccccc4)CCCC3)sc2c1	8.2	0.398	100	
O=C(NC1(C(=O)N[C@@H](CCCN2CCN(CC3CCOCC3)CC2)Cc2ccccc2)CCCC1)c1ccc(-c2ccccc2)cc1	8.7	0.501	86	13.6
Cc1ccc2cc(C(=O)NC3(C(=O)N[C@@H](CCCN4CCN(Cc5nnn(C)n5)CC4)Cc4ccccc4)CCCC3)sc2c1	7.9	0.316	72	
Cc1ccc2cc(C(=O)NC3(C(=O)N[C@@H](CCCN4CCN(c5ncccn5)CC4)Cc4ccccc4)CCCC3)sc2c1	8	0.794	63	
Cc1ccc2cc(C(=O)NC3(C(=O)N[C@@H](COCC4CCN(CC5CCOCC5)CC4)Cc4ccccc4)CCCC3)sc2c1	7.6	0.631	46	
Cc1ccc2cc(C(=O)NC3(C(=O)N[C@@H](CCCC4CCN(CC5CCOCC5)CC4)Cc4ccccc4)CCCC3)sc2c1	7.9		67	
Cc1ccc2cc(C(=O)NC3(C(=O)N[C@@H](CCCN4CCN(c5ccccn5)CC4)Cc4ccccc4)CCCC3)sc2c1	7.8	0.631	76	
CCS(=O)(=O)N1CCN(CCC[C@@H](Cc2ccccc2)NC(=O)C2(NC(=O)c3cc4ccc(C)cc4s3)CCCC2)CC1	8	0.631	77	
O=C(NC1(C(=O)N[C@@H](CCCN2CCN(CC3CCOCC3)CC2)Cc2ccccc2)CCCC1)c1ccc2ccccc2c1	8.2	0.316		14.6
COc1ccc2oc(C(=O)NC3(C(=O)N[C@@H](CCCN4CCN(CC5CCOCC5)CC4)Cc4ccccc4)CCCC3)cc2c1	7.4	0.631	98	8.6
Cc1ccc2cc(C(=O)NC3(C(=O)N[C@@H](CCCN4CCC(C(=O)N5CCOCC5)CC4)Cc4ccccc4)CCCC3)sc2c1	7.8	0.794	81	
Cc1ccc2cc(C(=O)NC3(C(=O)N[C@@H](CCCN4CCC(N(C)C5CCOCC5)CC4)Cc4ccccc4)CCCC3)sc2c1	7.8	1.26		
Cc1ccc2cc(C(=O)NC3(C(=O)N[C@H](CCCN4CCN(CC5CCOCC5)CC4)Cc4ccccc4)CCCC3)sc2c1	7.7	0.631		
Cc1ccc2cc(C(=O)NC3(C(=O)N[C@@H](CCCN4CCN(Cc5cccs5)CC4)Cc4ccccc4)CCCC3)sc2c1	7.7	0.158	83	
Cc1ccc2cc(C(=O)NC3(C(=O)N[C@@H](CCC(=O)N4CCC(N5CCOCC5)CC4)Cc4ccccc4)CCCC3)sc2c1	7.8	2		
Cc1ccc2cc(C(=O)NC3(C(=O)N[C@@H](CCN4CCN(CC5CCOCC5)CC4)Cc4ccccc4)CCCC3)sc2c1		15.8		
Cc1ccc2cc(C(=O)NC3(C(=O)N[C@@H](CCCN4CCN(S(=O)(=O)N(C)C)CC4)Cc4ccccc4)CCCC3)sc2c1	7.9	0.316	80	
CCOCCCN1CCN(CCC[C@@H](Cc2ccccc2)NC(=O)C2(NC(=O)c3cc4ccc(C)cc4s3)CCCC2)CC1	7.2	0.316		
Cc1ccc2cc(C(=O)NC3(C(=O)N[C@@H](CCCN4CCN(S(=O)(=O)C(C)C)CC4)Cc4ccccc4)CCCC3)sc2c1	7.9	0.501	85	
CO/N=C(\N1CCOCC1)N1CCN(CCC[C@@H](Cc2ccccc2)NC(=O)C2(NC(=O)c3cc4ccc(C)cc4s3)CCCC2)CC1			100	
Cc1ccc2cc(C(=O)NC3(C(=O)N[C@@H](CCC(=O)N4CCN(C5CCOCC5)CC4)Cc4ccccc4)CCCC3)sc2c1	8.2	0.0794	99	
Cc1ccc2cc(C(=O)NC3(C(=O)N[C@@H](CCCN4CCC(N5CCOCC5)CC4)Cc4ccccc4)CCCC3)sc2c1	7.8	0.501		
Cc1ccc2cc(C(=O)NC3(C(=O)N[C@@H](CCCN4CCN(Cc5ccncc5)CC4)Cc4ccccc4)CCCC3)sc2c1	8.4	0.251	86	

— ChEMBL document CHEMBL1155466, “Structure-activity relationships of 6-methyl-benzo[b]thiophene-2-carboxylic acid (1-[(S)-1-benzyl-4-[4-(tetrahydropyran-4-ylmethyl)piperazin-1-yl]butylcarbamoyl]cyclopentyl)amide, potent antagonist of the neurokinin-2 receptor” (J Med Chem, 2010)
